Measurements reported in US20250082760A1 (priority 2020, published 2025).
Structures can show the parent of a compound that is named as a salt.

Tests used:
[1] = stability (degradation test) in fresh rat plasma; format: in vitro ADME; settings: for Sample Peak Average: rat, 5 μmol/ml
Method: Experimental sample: compound 5 prepared in Example 5; 5% glucose (Xi′an Jingxi Shuanghe Pharmaceutical Co., Ltd.); rat plasma (source: Animal Center, Department of Medicine, Xi′an Jiaotong University) Fresh plasma sample preparation: • a: Compound 5 prepared in Example 5 was dissolved in purified water to prepare solution A with a concentration of 10 mg/ml; 150 μl of solution A was added to 660 μl of preheated plasma (37° C.) to obtain solution B; • b: Solution B (5 μmol/ml) was stirred in a 37° C. water bath for a certain period of time (1 min, 2 min, 4 min, 8 min, 16 min, 30 min, 1 h, 2 h, 4 h) and 50 μl was sampled at each time point; • c: 50 μl of sampled solution) was added to 950 μl of methanol (0.1% AcH) to precipitate plasma proteins, resulting in mixture C; • d: The mixture C was vortexed for 1 s, centrifuged at 12000 r for 3 min, and the supernatant was taken for testing.
Liquid phase detection: take 10 μl of the supernatant after the above centrifugation into a sample for measurement.

[2] = test system: reserpine depression model mice; assay: forced swimming test in mice (reserpine depression model); format: in vivo, Kunming mice
Method: Experimental Drug, Animal, Grouping and Administration are Same as Sugar Water Preference Experiment Method.
Preparation of depression animal models, acute intraperitoneal injection of 6 mg/kg Res can cause a continuous decrease in monoamine neurotransmitters in the brain for 1 week, and depression-like behaviors last for 72 hours, it is often utilized for the preparation of depression models (Huang et al., 2004).
Forced swimming experiment process, the forced swimming experiment is an experiment in which animals are placed in an unavoidable stressful environment to detect the despair state of animal behavior (Porsolt et al., 1978). Male Kunming mice were selected and randomly divided into groups. Conduct in a quiet and enclosed behavioral observation room, with red lights for indoor lighting (25 lux). The experiment is divided into two stages, the first stage: adaptation experiment, 1 day before the test, 9:00-12:00 h, put the animals into the forced swimming test equipment (plexiglass drum: diameter 20 cm, height 25 cm, water depth 12 cm, water temperature 21-25° C., the upper side CCD camera is connected to the computer to record) after 15 minutes of adaptation, take it out, dry the hair with a towel and put it back into the cage. The second stage: testing experiment, animals in each group were put into the forced swimming bucket for 5 minutes at the same time period, and the behavioral activities during the testing period were tracked and recorded by digital cameras and then analyzed. Immobility time: The animal floats on the water surface, with no movement of the limbs or slight movement of the hind limbs to keep the head above the water surface. Evaluate depression like behavior by detecting the despair state of animals based on their immobility time.
(§1) Statistical analysis, the experimental data were analyzed by SPSS 19.0 statistical software, and all data were expressed as Means±SEM.

[3] = test system: nitroglycerin-induced migraine mouse model; assay: nitroglycerin-induced migraine mouse model (hot plate, head scratching, body weight); format: in vivo, ICR mice; settings: for hind feet licking time (hot plate) / total number of head scratching times: reference model group, day 5; for hind feet licking time (hot plate): 45 min after modeling, p<0.05
Method: 48 ICR mice weigt 18-22 g, half male and half female; purchased from Qinglongshan Animal Breeding Farm, Jiangning District, Nanjing City, certificate: SCXK (Su) 2017-0001; rearing conditions: room temperature 18-20° C., same sex rearing in separate cages, 12 hours of light, regular ventilation, conventional full-price solid feed feeding, bedding changed every two days; 48 mice were randomly divided into 6 groups (blank control group, model group, positive drug group, low-dose group of test drug, medium-dose group of test drug, high-dose group of test drug), 8 animals (4♀4) in each group, marked No. 1-8 with picric acid respectively.
Solvent: 0.5% CMC-Na aqueous solution; positive drug: flunarizine hydrochloride (sibelin) capsules (specification 5 mg), take the contents in a mortar, add 100 ml of 0.5% CMC-Na solution while grinding, placed in EP tubes for standby; Test drug (compound 5): dissolve into 5, 10, 20 mg/ml solutions with distilled water respectively, and placed in EP tubes for standby; Modeling drug (nitroglycerin): take 2 nitroglycerin tablets (specification 5 mg), crushed into powder, placed in EP tubes, added 500 μl of propylene glycol with a pipette and shaken well, standing still for 5 minutes, added 9.5 ml of normal saline, shaken well and standing still overnight, take the supernatant (containing nitroglycerin) 1 mg/ml) for use.
Except for the first group (blank control group), animals in other groups were subcutaneously injected with 10 mg/kg (0.2 ml/20 g) of nitroglycerin back-up solution 1 h after each administration (modeling once every other day on the 1st, 3rd, and 5th days).
The first group was the blank control group, which was given 0.5% CMC-Na 0.2 ml/20 g by gavage; the second group was the model group, which was given 0.5% CMC-Na by gavage; the third group was the positive drug group, which was given by gavage Flunarizine hydrochloride (sibilin) 1 mg/kg; the fourth group was the low-dose group of test drug, which was given 100 mg/kg of compound 5 by gavage; the fifth group was the medium-dose group of test drug, which was given 200 mg/kg of compound 5 by gavage; the sixth group was the high-dose group of test drug, which was given 400 mg/kg of compound 5 by gavage. Dosing every other day on days 1, 3, and 5.
In behavioral studies, mice scratching their heads for more than 5 times or scratching their faces with forelimbs for more than 5 times were identified as migraine-related behaviors caused by modeling, with a record of scratching their heads once; in the hot plate method, mice lifted their hind limbs and licked their hind feet as the observation indicator, record the time immediately.

[4] = test system: righting reflex in mice; assay: mouse righting reflex test (sedative and hypnotic effects); format: in vivo, Kunming mice
Method: Experimental animals, SPF Kunming mice, male, 20-30 g, Laboratory Animal Center of Lanzhou University (certificate number: SCXK (Gan) 2018-0002), reared in separate cages, temperature, 22±1° C., humidity, 50%, automatic in the light-controlled 12 h/12 h light-dark cycle (light-on time 8:00 h, light-off time 20:00 h, light intensity ≈100 lux) environment, free food and activities, adapted to the experimental environment for 5 days.
as §1

[5] = Res 6 mg/kg + compound 5 56 mg/kg i.p.
[6] = intraperitoneal, compound 5 56 mg/kg, Pro 25 mg/kg, A1P1 24 and 25 mg/kg, Dia 5 mg/kg, n = 7, listed as compound 5, hydrochloride

SMILES: CC(C)c1cccc(C(C)C)c1OC(=O)CC1(CN(C)C)CCCCC1 [Compound 5, 2,6-diisopropylphenyl 2-(1-((dimethylamino)methyl)cyclohexyl)acetate hydrochloride]
- degradation / stability in fresh plasma ([1]; fresh rat plasma, 37° C., up to 4 h): not significantly degraded
- Sample Peak Average ([1]; 1 min): 203062103
- Sample Peak Average ([1]; 2 min): 181706084
- Sample Peak Average ([1]; 4 min): 161303805
- Sample Peak Average ([1]; 8 min): 178769005
- Sample Peak Average ([1]; 16 min): 189298224
- Sample Peak Average ([1]; 1 h): 230407155
- Sample Peak Average ([1]; 2 h): 260803581
- Sample Peak Average ([1]; 4 h): 246523592
- antidepressant effect (forced swimming test) [2, 5]: significant antidepressant effect
- forced immobility time compared with the Res+A1P1 group [2, 5]: shortened to a certain extent, but there was no significant difference
- forced immobility time compared with the Res+Pro group [2, 5]: shortened and there was a significant difference
- change of forced swimming immobility time compared with the Res+DMSO group ([2]; after Res 6 mg/kg i.p., CLI 50, Pro 25, A1P1 24 and 25, compound 5 56 mg/kg i.p.): slightly shortened
- Forced swimming immobility time ([2]; after Res 6 mg/kg i.p., CLI 50, Pro 25, A1P1 24 and 25, compound 5 56 mg/kg i.p., 5 min test, Means±SEM, Res + DMSO 169.82 ± 11.22, DMSO 106.72 ± 16.49): 116.29 ± 22.23 s
- alleviation of nitroglycerin-induced migraine in mice ([3]; by gavage on days 1, 3, 5, compound 5 100, 200, 400 mg/kg): effectively alleviate
- weight gain of mice ([3]; mouse, in vivo): no significant effect
- hind feet licking time (hot plate) ([3]; high dose 400 mg/kg gavage): significant difference
- total number of head scratching times ([3]; high dose 400 mg/kg gavage): significant difference (p<0.05)
- total number of head scratching times ([3]; low dose 100 mg/kg gavage): extremely significant (p<0.01)
- total number of head scratching times ([3]; medium dose 200 mg/kg gavage): extremely significant (p<0.01)
- hind feet licking time (hot plate) ([3]; middle dose 200 mg/kg gavage): significant difference
- sedative effect ([4]; intraperitoneal 56 mg/kg, versus Pro and A1P1): better sedative effect
- Observation of activity and other phenomena ([4]; intraperitoneal, compound 5 56 mg/kg, Pro 25 mg/kg, A1P1 24 and 25 mg/kg, Dia 5 mg/kg, n = 7, hydrochloride): Reduced activity
- Disappearance time (latency of disappearance of the righting reflex) [4, 6]: did not disappear
- Observation of activity and other phenomena [4, 6]: significantly reduced
